{"source": "patent US9085555B2", "about": "“Complement pathway modulators and uses thereof” (priority 2011, dated 2015)", "note": "pIC50: −log10 of the molar value."}
{"target": "Factor D (Homo sapiens (Human), UniProt P00746)", "sequence (P00746 26-253)": "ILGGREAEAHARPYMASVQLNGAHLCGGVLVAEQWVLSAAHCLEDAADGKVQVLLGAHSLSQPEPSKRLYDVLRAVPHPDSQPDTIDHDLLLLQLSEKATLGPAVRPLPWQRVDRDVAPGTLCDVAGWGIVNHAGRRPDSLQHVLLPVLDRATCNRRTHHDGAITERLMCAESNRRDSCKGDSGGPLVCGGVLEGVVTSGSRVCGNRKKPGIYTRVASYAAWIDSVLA", "experiment": "biochemical", "type": "biochemical", "conditions": "read-out: IC50"}
{"smiles": "CCc1ccc2c(NC(=O)N3CCC[C@H]3C(=O)Nc3cccc(OC(F)(F)F)c3)cn(C(N)=O)c2c1", "note": "[Example 288, (S)-Pyrrolidine-1,2-dicarboxylic acid 1-[(1-carbamoyl-6-ethyl-1H-indol-3-yl)-amide] 2-[(3-trifluoromethoxy-phenyl)-amide]]", "pIC50": 5.96}
{"smiles": "CNC(=O)n1cc(NC(=O)N2[C@@H]3C[C@@H]3C[C@H]2C(=O)N[C@H](CN(C)C)c2cccc(Cl)c2F)c2ccccc21", "note": "[Example 289, (1R,3S,5R)-2-Aza-bicyclo[3.1.0]hexane-2,3-dicarboxylic acid 3-{[(S)-1-(3-chloro-2-fluoro-phenyl)-2-dimethylamino-ethyl]-amide} 2-[(1-methylcarbamoyl-1H-indol-3-yl)-amide]]", "pIC50": 6.26}
{"smiles": "NC(=O)n1cc(NC(=O)N2CCC[C@H]2C(=O)Nc2cccc(OC(F)(F)F)c2)c2ccc(Cl)cc21", "note": "[Example 291, (S)-Pyrrolidine-1,2-dicarboxylic acid 1-[(1-carbamoyl-6-chloro-1H-indol-3-yl)-amide] 2-[(3-trifluoromethoxy-phenyl)-amide]]", "pIC50": 5.49}
{"smiles": "COc1ccc2c(c1)c(NC(=O)N1C[C@H](F)C[C@H]1C(=O)NCc1cccc(Cl)c1F)cn2C(N)=O", "note": "[Example 292, (2S,4R)-4-Fluoro-pyrrolidine-1,2-dicarboxylic acid 1-[(1-carbamoyl-5-methoxy-1H-indol-3-yl)-amide] 2-(3-chloro-2-fluoro-benzylamide)]", "pIC50": 8.52}
{"smiles": "NC(=O)n1cc(NC(=O)N2CCS[C@H]2C(=O)NCc2ccc(Cl)s2)c2ccccc21", "note": "[Example 293, (S)-Thiazolidine-2,3-dicarboxylic acid 3-[(1-carbamoyl-1H-indol-3-yl)-amide] 2-[(5-chloro-thiophen-2-ylmethyl)-amide]]", "pIC50": 7.46}
{"smiles": "NC(=O)n1cc(NC(=O)N2C3CC3C[C@H]2C(=O)NCc2cccc(Cl)c2F)c2cc(F)ccc21", "note": "(stereo partly drawn) [Example 294, (1R,3S,5R)-2-Aza-bicyclo[3.1.0]hexane-2,3-dicarboxylic acid 2-[(1-carbamoyl-5-fluoro-1H-indol-3-yl)-amide] 3-(3-chloro-2-fluoro-benzylamide)]", "pIC50": 8.30}
{"smiles": "NC(=O)n1cc(NC(=O)N2C3CC3C[C@H]2C(=O)NCc2cnc(Cl)s2)c2ccccc21", "note": "(stereo partly drawn) [Example 295, (1R,3S,5R)-2-Aza-bicyclo[3.1.0]hexane-2,3-dicarboxylic acid 2-[(1-carbamoyl-1H-indol-3-yl)-amide] 3-[(2-chloro-thiazol-5-ylmethyl)-amide]]", "pIC50": 6.82}
{"smiles": "NC(=O)n1cc(NC(=O)N2C[C@H](F)C[C@H]2C(=O)N[C@@H](c2cccc(Cl)c2)C(F)(F)F)c2ccccc21", "note": "[Example 296, (2S,4R)-4-Fluoro-pyrrolidine-1,2-dicarboxylic acid 1-[(1-carbamoyl-1H-indol-3-yl)-amide] 2-{[(S)-1-(3-chloro-phenyl)-2,2,2-trifluoro-ethyl]-amide}]", "pIC50": 6.66}
{"smiles": "NC(=O)n1cc(NC(=O)N2C3CC3C[C@H]2C(=O)Nc2cccc(OC(F)(F)F)c2)c2ccc(F)cc21", "note": "(stereo partly drawn) [Example 297, (1R,3S,5R)-2-Aza-bicyclo[3.1.0]hexane-2,3-dicarboxylic acid 2-[(1-carbamoyl-6-fluoro-1H-indol-3-yl)-amide] 3-[(3-trifluoromethoxy-phenyl)-amide]]", "pIC50": 6.46}
{"smiles": "COc1ccc2c(c1)c(NC(=O)N1C[C@H](F)C[C@H]1C(=O)Nc1cccc(OC(F)(F)F)c1F)cn2C(N)=O", "note": "[Example 298, (2S,4R)-4-Fluoro-pyrrolidine-1,2-dicarboxylic acid 1-[(1-carbamoyl-5-methoxy-1H-indol-3-yl)-amide] 2-[(2-fluoro-3-trifluoromethoxy-phenyl)-amide]]", "pIC50": 8.15}
{"smiles": "NC(=O)n1cc(NC(=O)N2CC[C@H]2C(=O)Nc2cccc(OC(F)(F)F)c2)c2ccccc21", "note": "[Example 299, (S)-Azetidine-1,2-dicarboxylic acid 1-[(1-carbamoyl-1H-indol-3-yl)-amide] 2-[(3-trifluoromethoxy-phenyl)-amide]]", "pIC50": 5.74}
{"smiles": "COc1ccc2c(c1)c(NC(=O)N1C3CC3C[C@H]1C(=O)NCc1cccc(Cl)c1F)cn2C(N)=O", "note": "(stereo partly drawn) [Example 300, (1R,3S,5R)-2-Aza-bicyclo[3.1.0]hexane-2,3-dicarboxylic acid 2-[(1-carbamoyl-5-methoxy-1H-indol-3-yl)-amide] 3-(3-chloro-2-fluoro-benzylamide)]", "pIC50": 8.40}
{"smiles": "NC(=O)n1cc(NC(=O)N2CC(F)(F)C[C@H]2C(=O)NCc2cccc(Cl)c2F)c2ccccc21", "note": "[Example 301, (S)-4,4-Difluoro-pyrrolidine-1,2-dicarboxylic acid 1-[(1-carbamoyl-1H-indol-3-yl)-amide] 2-(3-chloro-2-fluoro-benzylamide)]", "pIC50": 7.02}
{"smiles": "CC1(C)CC[C@@H](C(=O)NCc2cccc(Cl)c2F)N1C(=O)Nc1cn(C(N)=O)c2ccccc12", "note": "[Example 302, (S)-5,5-Dimethyl-pyrrolidine-1,2-dicarboxylic acid 1-[(1-carbamoyl-1H-indol-3-yl)-amide] 2-(3-chloro-2-fluoro-benzylamide)]", "pIC50": 7.12}
{"smiles": "COCCOc1ccc2c(c1)c(NC(=O)N1C[C@H](F)C[C@H]1C(=O)NCc1cccc(Cl)c1F)cn2C(N)=O", "note": "[Example 303, (2S,4R)-4-Fluoro-pyrrolidine-1,2-dicarboxylic acid 1-{[1-carbamoyl-5-(2-methoxy-ethoxy)-1H-indol-3-yl]-amide} 2-(3-chloro-2-fluoro-benzylamide)]", "pIC50": 8.10}
{"smiles": "Cc1ccnc(CNC(=O)[C@@H]2C[C@@H](F)CN2C(=O)Nc2cn(C(N)=O)c3ccccc23)c1F", "note": "[Example 304, (2S,4R)-4-Fluoro-pyrrolidine-1,2-dicarboxylic acid 1-[(1-carbamoyl-1H-indol-3-yl)-amide] 2-[(3-fluoro-4-methyl-pyridin-2-ylmethyl)-amide]]", "pIC50": 6.19}
{"smiles": "NC(=O)n1cc(NC(=O)N2C[C@H](F)C[C@H]2C(=O)NCc2cncc(C(F)(F)F)c2)c2ccccc21", "note": "[Example 305, (2S,4R)-4-Fluoro-pyrrolidine-1,2-dicarboxylic acid 1-[(1-carbamoyl-1H-indol-3-yl)-amide] 2-[(5-trifluoromethyl-pyridin-3-ylmethyl)-amide]]", "pIC50": 5.87}
{"smiles": "CCOC(=O)Cc1ccc2c(c1)c(NC(=O)N1[C@@H]3C[C@@H]3C[C@H]1C(=O)NCc1cccc(Cl)c1F)cn2C(N)=O", "note": "[Example 306, (1-carbamoyl-3-{[(1R,3S,5R)-3-(3-chloro-2-fluoro-benzylcarbamoyl)-2-aza-bicyclo[3.1.0]hexane-2-carbonyl]-amino}-1H-indol-5-yl)-acetic acid ethyl ester]", "pIC50": 8.40}
{"smiles": "NC(=O)n1cc(NC(=O)N2CCC3C[C@@]32C(=O)Nc2cccc(OC(F)(F)F)c2)c2ccccc21", "note": "(stereo partly drawn) [Example 307, (1S,5R)-2-Aza-bicyclo[3.1.0]hexane-1,2-dicarboxylic acid 2-[(1-carbamoyl-1H-indol-3-yl)-amide] 1-[(3-trifluoromethoxy-phenyl)-amide]]", "pIC50": 4.88}
{"smiles": "NC(=O)n1cc(NC(=O)N2C[C@H](F)C[C@H]2C(=O)NCc2cccc(Cl)c2F)c2ccc(OC(F)F)cc21", "note": "[Example 308, (2S,4R)-4-Fluoro-pyrrolidine-1,2-dicarboxylic acid 1-[(1-carbamoyl-6-difluoromethoxy-1H-indol-3-yl)-amide] 2-(3-chloro-2-fluoro-benzylamide)]", "pIC50": 6.90}
{"smiles": "COc1cc(NC(=O)[C@@H]2C[C@@H](F)CN2C(=O)Nc2cn(C(N)=O)c3ccccc23)ccn1", "note": "[Example 309, (2S,4R)-4-Fluoro-pyrrolidine-1,2-dicarboxylic acid 1-[(1-carbamoyl-1H-indol-3-yl)-amide] 2-[(2-methoxy-pyridin-4-yl)-amide]]", "pIC50": 6.26}
{"smiles": "NC(=O)n1cc(NC(=O)N2CCS[C@H]2C(=O)Nc2cncc(Cl)c2)c2ccccc21", "note": "[Example 310, (S)-Thiazolidine-2,3-dicarboxylic acid 3-[(1-carbamoyl-1H-indol-3-yl)-amide] 2-[(5-chloro-pyridin-3-yl)-amide]]", "pIC50": 6.32}
{"smiles": "C=CCOc1ccc2c(NC(=O)N3C4CC4C[C@H]3C(=O)NCc3cccc(Cl)c3F)cn(C(N)=O)c2c1", "note": "(stereo partly drawn) [Example 311, (1R,3S,5R)-2-Aza-bicyclo[3.1.0]hexane-2,3-dicarboxylic acid 2-[(6-allyloxy-1-carbamoyl-1H-indol-3-yl)-amide] 3-(3-chloro-2-fluoro-benzylamide)]", "pIC50": 7.15}
{"smiles": "NC(=O)n1cc(NC(=O)N2C[C@@H](CO)C[C@H]2C(=O)NCc2cccc(Cl)c2F)c2ccccc21", "note": "[Example 312, (2S,4S)-4-Hydroxymethyl-pyrrolidine-1,2-dicarboxylic acid 1-[(1-carbamoyl-1H-indol-3-yl)-amide] 2-(3-chloro-2-fluoro-benzylamide)]", "pIC50": 6.94}
{"smiles": "NC(=O)n1cc(NC(=O)N2CCC[C@H]2C(=O)Nc2cccc(OC(F)(F)F)c2)c2ccc(OCc3ccccc3)cc21", "note": "[Example 313, (S)-Pyrrolidine-1,2-dicarboxylic acid 1-[(6-benzyloxy-1-carbamoyl-1H-indol-3-yl)-amide]2-[(3-trifluoromethoxy-phenyl)-amide]]", "pIC50": 5.89}
{"smiles": "CN(C)C[C@@H](NC(=O)[C@@H]1C[C@H]2C[C@H]2N1C(=O)Nc1cn(C(N)=O)c2ccccc12)c1cccc(Cl)c1F", "note": "[Example 314, (1R,3S,5R)-2-Aza-bicyclo[3.1.0]hexane-2,3-dicarboxylic acid 2-[(1-carbamoyl-1H-indol-3-yl)-amide] 3-{[(S)-1-(3-chloro-2-fluoro-phenyl)-2-dimethylamino-ethyl]-amide}]", "pIC50": 7.70}
{"smiles": "CCOC(=O)Cc1ccc2c(NC(=O)N3[C@@H]4C[C@@H]4C[C@H]3C(=O)NCc3cccc(Cl)c3F)cn(C(N)=O)c2c1", "note": "[Example 315, (1-carbamoyl-3-{[(1R,3S,5R)-3-(3-chloro-2-fluoro-benzylcarbamoyl)-2-aza-bicyclo[3.1.0]hexane-2-carbonyl]-amino}-1H-indol-6-yl)-acetic acid ethyl ester]", "pIC50": 7.89}
{"smiles": "CO[C@@H]1C[C@@H](C(=O)Nc2cccc(OC(F)(F)F)c2)N(C(=O)Nc2cn(C(N)=O)c3ccccc23)C1", "note": "[Example 316, (2S,4R)-4-Methoxy-pyrrolidine-1,2-dicarboxylic acid 1-[(1-carbamoyl-1H-indol-3-yl)-amide] 2-[(3-trifluoromethoxy-phenyl)-amide]]", "pIC50": 5.51}
